Measured values published in paper PMC11421834 (European journal of medicinal chemistry, 2024).

Experiments:
TRKC = TRKC (Homo sapiens, UniProt Q16288); experiment: TRKC enzyme assay, single concentration; details: Percentage inhibition at 0.5 μM (n = 2); ATP 10 μM
over 400 kinases = experiment: KinomeSCAN kinome profiling at 1 μM; assay type: binding; details: for >90: Number of kinases inhibited above 90%: KinomeSCAN at 1 μM across over 400 kinases
FLT3 = target: T1, FLT3 (Homo sapiens, UniProt P36888); experiment: FLT3 enzyme assay, single concentration; details: read-out: FLT3 (% Inh.)
T1 sequence (P36888 27-993): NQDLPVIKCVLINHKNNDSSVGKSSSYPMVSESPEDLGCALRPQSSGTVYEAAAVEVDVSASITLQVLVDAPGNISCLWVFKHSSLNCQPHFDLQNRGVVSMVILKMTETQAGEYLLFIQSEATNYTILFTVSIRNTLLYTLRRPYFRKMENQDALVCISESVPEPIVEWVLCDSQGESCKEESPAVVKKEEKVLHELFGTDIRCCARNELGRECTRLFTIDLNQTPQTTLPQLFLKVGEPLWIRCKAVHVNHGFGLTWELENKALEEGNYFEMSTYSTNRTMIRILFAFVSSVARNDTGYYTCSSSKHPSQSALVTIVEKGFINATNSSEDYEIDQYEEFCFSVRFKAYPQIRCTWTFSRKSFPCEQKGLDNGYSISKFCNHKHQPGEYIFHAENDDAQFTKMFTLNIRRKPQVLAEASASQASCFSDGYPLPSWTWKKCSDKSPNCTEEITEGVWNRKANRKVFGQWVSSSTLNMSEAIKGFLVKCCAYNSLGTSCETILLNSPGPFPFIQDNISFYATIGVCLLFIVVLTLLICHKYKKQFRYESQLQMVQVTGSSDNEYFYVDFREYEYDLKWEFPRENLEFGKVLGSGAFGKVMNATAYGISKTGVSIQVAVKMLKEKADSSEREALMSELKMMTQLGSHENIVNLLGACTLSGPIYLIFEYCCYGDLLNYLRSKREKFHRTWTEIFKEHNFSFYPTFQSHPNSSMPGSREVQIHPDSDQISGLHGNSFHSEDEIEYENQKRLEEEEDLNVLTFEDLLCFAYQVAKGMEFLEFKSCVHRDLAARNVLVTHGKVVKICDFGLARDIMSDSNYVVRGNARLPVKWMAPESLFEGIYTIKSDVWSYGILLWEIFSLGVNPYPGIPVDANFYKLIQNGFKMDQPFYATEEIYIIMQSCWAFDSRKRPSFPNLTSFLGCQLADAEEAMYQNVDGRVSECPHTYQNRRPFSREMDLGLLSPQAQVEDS

Sequence of TRKC (Q16288 32-839): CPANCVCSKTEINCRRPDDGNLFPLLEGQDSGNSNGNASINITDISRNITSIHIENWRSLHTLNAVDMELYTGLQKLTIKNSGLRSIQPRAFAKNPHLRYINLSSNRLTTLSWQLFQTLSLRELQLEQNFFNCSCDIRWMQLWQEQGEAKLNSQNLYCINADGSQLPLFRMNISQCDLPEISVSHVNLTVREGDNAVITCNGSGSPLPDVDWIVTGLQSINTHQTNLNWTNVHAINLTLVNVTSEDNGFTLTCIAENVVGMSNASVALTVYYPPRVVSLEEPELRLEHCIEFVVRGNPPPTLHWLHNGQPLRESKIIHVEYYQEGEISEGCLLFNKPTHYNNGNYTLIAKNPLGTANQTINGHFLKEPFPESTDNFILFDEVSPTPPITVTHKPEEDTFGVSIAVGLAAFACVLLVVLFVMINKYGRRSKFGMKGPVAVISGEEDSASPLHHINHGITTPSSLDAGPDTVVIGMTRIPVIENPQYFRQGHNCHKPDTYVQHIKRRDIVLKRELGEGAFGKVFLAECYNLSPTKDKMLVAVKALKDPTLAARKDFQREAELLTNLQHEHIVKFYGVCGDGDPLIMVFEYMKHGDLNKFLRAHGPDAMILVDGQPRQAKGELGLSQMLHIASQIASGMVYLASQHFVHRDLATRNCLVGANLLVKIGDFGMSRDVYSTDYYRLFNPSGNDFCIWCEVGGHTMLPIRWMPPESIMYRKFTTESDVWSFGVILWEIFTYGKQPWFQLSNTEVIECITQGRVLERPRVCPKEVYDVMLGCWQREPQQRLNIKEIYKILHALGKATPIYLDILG

| Molecule | >90: Number of kinases inhibited above 90% (over 400 kinases) | further results |
| --- | --- | --- |
| 3-ethoxy-N-[(3Z)-3-[(1H-imidazole-5-yl)methylidene]-2-oxo-2,3-dihydro-1H-indol-5-yl]thiophene-2-carboxamide [Compound 120] | – | TRKC (% Inh.) (TRKC): 92% |
| COc1ccc2c(c1)/C(=C/c1cnc[nH]1)C(=O)N2 [Compound 1, (3Z)-3-[(1H-imidazole-5-yl)methylidene]-5-methoxy-2,3-dihydro-1H-indol-2-one] | 15 | – |
| CC(=O)c1ccc2c(c1)/C(=C/c1ccc[nH]1)C(=O)N2 [Compound 27, (3Z)-5-acetyl-3-(1H-pyrrol-2-ylmethylidene)-2,3-dihydro-1H-indol-2-one] | 62 | S(10) (over 400 kinases; KinomeSCAN at 1 μM, selectivity score): 0.154 |
| O=C1Nc2ccc(C(=O)c3ccccc3)cc2/C1=C/c1cnc[nH]1 [Compound 44, (3Z)-5-benzoyl-3-(1H-imidazole-5-ylmethylidene)-2,3-dihydro-1H-indol-2-one] | 15 | – |
| O=C1Nc2ccc(NC(=O)c3ccccc3)cc2/C1=C/c1ccc[nH]1 [Compound 72, N-[(3Z)-2-oxo-3-(1H-pyrrol-2-ylmethylidene)-2,3-dihydro-1H-indol-5-yl]benzamide] | 10 | – |
| O=C1Nc2ccc(NC(=O)c3ccccc3)cc2/C1=C/c1cnc[nH]1 [Compound 73, N-[(3Z)-3-(1H-imidazole-5-ylmethylidene)-2-oxo-2,3-dihydro-1H-indol-5-yl]benzamide] | 9 | – |
| O=C1Nc2ccc(NC(=O)c3ccccc3)cc2/C1=C/c1ncc[nH]1 [Compound 74, N-[(3Z)-3-(1H-imidazole-2-ylmethylidene)-2-oxo-2,3-dihydro-1H-indol-5-yl]benzamide] | 11 | – |
| COc1ccccc1C(=O)Nc1ccc2c(c1)/C(=C/c1ncc[nH]1)C(=O)N2 [Compound 97, N-[(3Z)-3-(1H-imidazole-2-ylmethylidene)-2-oxo-2,3-dihydro-1H-indol-5-yl]-2-methoxybenzamide] | 7 | – |
| O=C1Cc2cc(NC(=O)c3cc4sccc4s3)ccc2N1 [Compound 111] | 15 | – |
| COc1ccsc1C(=O)Nc1ccc2c(c1)/C(=C/c1cnc[nH]1)C(=O)N2 [Compound 119, (Z)-N-(3-((1H-imidazole-5-yl)methylene)-2-oxoindolin-5-yl)-3-methoxythiophene-2-carboxamide] | – | inhibition at 0.5 µM (FLT3): 80% |
| Cc1nc[nH]c1/C=C1\C(=O)Nc2ccc(NC(=O)c3ccccc3)cc21 [Compound 128, N-[(3Z)-3-[(4-methyl-1H-imidazole-5-yl)methylidene]-2-oxo-2,3-dihydro-1H-indol-5-yl]benzamide] | 11 | – |
| (3Z)-3-(1H-pyrazol-5-ylmethylidene)-2,3-dihydro-1H-indol-2-one [Compound 8] | – | TRKC (% Inh.) (TRKC): 92% |
